Source: article PMC6813295, “A tumour-selective cascade activatable self-detained system for drug delivery and cancer imaging” (Nature Communications, 2019)

System: H460 tumour-bearing nude mice
Experiment: In vivo antitumor efficacy and safety of treatment
Design: species or system mouse
Conditions: five times, n = 5
Source text: Data are presented as mean ± s.d.
(1 picture or pasted object on this page, not shown here)

`COc1cccc2c1C(=O)c1c(O)c3c(c(O)c1C2=O)C[C@@](O)(C(=O)CO)C[C@@H]3O[C@H]1C[C@H](N)[C@H](O)[C@H](C)O1` [DOX, doxorubicin] was tested, and the “mean tumour volume after 14 days” value (i.v. DOX dose 2.0 mg/kg, once every other day) was 854 mm^3 and the median survival time (i.v. identical DOX dose 2.0 mg/kg, Kaplan–Meier) was 12 days.
